A word on the Kd: it is the concentration at which binding is half-saturated.

The structures appear in SMILES notation.

Drawing on paper PMC5989226 (Nature Communications, 2018), this text covers Kd for one compound.

Holding throughout (format): binding
Experiment [1] has as its target T1, DELAY OF GERMINATION1 (DOG1) (Arabidopsis thaliana, UniProt A0SVK0, H245A).
T1 construct: full-length, N-terminal His6-tagged
Description: UV-visible absorption hemin titration ([…] nm).

The target of experiment [2] is T2, DELAY OF GERMINATION1 (DOG1) (Arabidopsis thaliana, UniProt A0SVK0).
T2 sequence (A0SVK0 1-291): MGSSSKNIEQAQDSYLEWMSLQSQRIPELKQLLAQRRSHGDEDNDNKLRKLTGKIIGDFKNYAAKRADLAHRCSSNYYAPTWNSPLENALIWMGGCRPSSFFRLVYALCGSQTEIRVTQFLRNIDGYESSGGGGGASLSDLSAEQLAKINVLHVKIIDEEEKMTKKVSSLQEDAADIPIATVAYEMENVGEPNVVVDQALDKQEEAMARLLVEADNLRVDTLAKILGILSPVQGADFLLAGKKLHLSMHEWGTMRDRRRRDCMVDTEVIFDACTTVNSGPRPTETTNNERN
Description: UV-visible absorption titration of apo-DOG1 with hemin (Soret peak, […] nm), […] fit.

In experiment [3] the target is T3, DELAY OF GERMINATION1 (DOG1) (Arabidopsis thaliana, UniProt A0SVK0, H245A/H249A).
T3 construct: full-length, N-terminal His6-tagged
T3 sequence (A0SVK0 whole entry H245A/H249A): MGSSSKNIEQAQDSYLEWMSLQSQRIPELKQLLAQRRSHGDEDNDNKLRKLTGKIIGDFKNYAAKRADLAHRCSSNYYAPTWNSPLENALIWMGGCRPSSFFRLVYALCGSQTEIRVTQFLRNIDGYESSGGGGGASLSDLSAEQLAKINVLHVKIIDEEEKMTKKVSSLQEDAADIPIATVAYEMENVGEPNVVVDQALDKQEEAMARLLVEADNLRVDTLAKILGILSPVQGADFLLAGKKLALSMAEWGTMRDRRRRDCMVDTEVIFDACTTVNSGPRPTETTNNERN
Description: UV-visible absorption hemin titration ([…] nm).

T1 sequence (A0SVK0 whole entry H245A): as the sequence (A0SVK0 whole entry H245A/H249A) above, with A249H counted along it

Regarding `C=CC1=C(C)C2=Cc3c(C=C)c(C)c4[n]3[Fe]([Cl])[n]3c(c(C)c(CCC(=O)O)c3=CC3=NC(=C4)C(C)=C3CCC(=O)O)=CC1=N2` [hemin], the Kd in experiment [1] was 129 nM; in experiment [2], 59 nM; in experiment [3], 918 nM.
